The source made the active and inactive calls. The rule behind the calls is not given here.
Key:
SK-N-MC [1] = test: Induction of autophagy in human SK-N-MC cells assessed as increase in LC3 accumulation at 25 uM after 24 hrs in presence of autophagy inhibitor Baf1 by Western blot analysis; assay type: functional, cell-based
[2] = Metal chelation activity assessed as 1:2 Fe3+:L complex formation in DMF:H2O (7:3) solution by cyclic voltametry
[3] = Metal chelation activity assessed as 1:1 compound to Cu2+L complex formation in DMF:H2O (7:3) solution by cyclic voltametry
SK-N-MC [4] = test: cells; assay type: ADME, cell-based; conditions: Homo sapiens, 72 h
Description: Antiproliferative activity against human SK-N-MC cells after 72 hrs by MTT assay

SK-N-MC [5] = test: Binding affinity to 59Fe2+ in human SK-N-MC cells labeled with 59Fe2-transferrin assessed as Fe release at 25 uM after 3 hrs by gamma scintillation counting method relative to DFO; assay type: cell-based
Acetylcholinesterase = Acetylcholinesterase (Electrophorus electricus, UniProt O42275); test: Inhibition of electric eel AChE using acetylthiocholine iodide as substrate preincubated for 15 mins followed by substrate addition measured for 5 mins by UV spectrophotometric analysis
SK-N-MC [6] = test: Induction of autophagy in human SK-N-MC cells assessed as decrease in p62 level at 25 uM after 24 hrs by Western blot analysis; assay type: functional, cell-based
[7] = Metal chelation activity assessed as 1:1 compound to Cu2+L complex formation in DMF:H2O (7:3) solution by EPR spectrscopy
[8] = Metal chelation activity assessed as 1:2 Fe3+:L complex formation in DMF:H2O (7:3) solution by EPR spectrscopy
SK-N-MC [9] = test: cells; conditions: Homo sapiens, read-out: Activity
Description: (§1) Neuroprotective activity against H2O2-induced cell death in human SK-N-MC cells assessed as cell viability at 10 uM preincubated for 2 hrs followed by H2O2 addition and measured after 24 hrs by MTT assay

[10] = Metal chelation activity assessed as 1:1 compound to Cu2+L2 complex formation in DMF:H2O (7:3) solution by EPR spectrscopy
SK-N-MC [11] = test: Induction of autophagy in human SK-N-MC cells assessed as increase in LC3 accumulation at 25 uM after 24 hrs in absence of autophagy inhibitor Baf1 by Western blot analysis; assay type: functional, cell-based
SK-N-MC [12] = conditions: Homo sapiens, 10 uM
Description: as §1

[13] = Metal chelation activity assessed as 1:2 Fe2+:L complex formation in DMF:H2O (7:3) solution by EPR spectrscopy

Sequence of Acetylcholinesterase (O42275 whole entry): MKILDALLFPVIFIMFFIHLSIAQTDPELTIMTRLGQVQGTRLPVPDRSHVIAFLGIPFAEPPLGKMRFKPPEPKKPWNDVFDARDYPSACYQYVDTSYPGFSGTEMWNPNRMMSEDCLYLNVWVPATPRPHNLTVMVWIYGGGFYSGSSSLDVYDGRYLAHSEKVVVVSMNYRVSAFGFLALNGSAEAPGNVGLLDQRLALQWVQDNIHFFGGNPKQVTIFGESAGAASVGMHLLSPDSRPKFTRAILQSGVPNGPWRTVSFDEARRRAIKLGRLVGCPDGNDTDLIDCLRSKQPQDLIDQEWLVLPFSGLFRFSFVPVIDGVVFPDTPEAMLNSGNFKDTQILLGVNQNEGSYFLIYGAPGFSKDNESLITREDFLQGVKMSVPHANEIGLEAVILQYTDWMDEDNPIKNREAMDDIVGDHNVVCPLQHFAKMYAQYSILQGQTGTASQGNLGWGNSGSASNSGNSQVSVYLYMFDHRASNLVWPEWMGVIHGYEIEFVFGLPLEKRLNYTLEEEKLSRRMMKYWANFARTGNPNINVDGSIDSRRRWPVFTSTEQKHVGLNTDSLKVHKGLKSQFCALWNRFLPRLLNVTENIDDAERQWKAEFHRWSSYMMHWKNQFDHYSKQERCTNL

Row | Structure (SMILES) | Activity (SK-N-MC [1]) | Activity [2] | Activity [3] | IC50 (SK-N-MC [4]) [µM] | Activity (SK-N-MC [5]) [%] | IC50 (Acetylcholinesterase) [µM] | Activity (SK-N-MC [6]) | Activity [7] | Activity [8] | viability at 10 µM (SK-N-MC [9]) [%] | Activity [10] | Activity (SK-N-MC [11]) | Activity (SK-N-MC [12]) | Activity [13]
1 | S=C(N/N=C/c1ccccn1)NC1CCN(Cc2ccccc2)CC1 | Active | Active | Active | 4.23 | 18 | 1.02 to 22.6 | inactive | Active | Active | 66 to 87 | – | – | – | –
2 | CC(=O)N(O)CCCCCNC(=O)CCC(=O)N(O)CCCCCNC(=O)CCC(=O)N(O)CCCCCN [DEFEROXAMINE] | – | – | – | 16.8 | – | – | – | – | – | 89 | – | – | – | –
3 | Oc1ccc2ccccc2c1/C=N/NC(=S)NC1CCN(Cc2ccccc2)CC1 | inactive | Active | Active | 8.86 | 16 | 1.23 | Active | Active | Active | – | inactive | Active | inactive | –
4 | Oc1cccc(/C=N/NC(=S)NC2CCN(Cc3ccccc3)CC2)c1O | inactive | – | – | 16.9 | 29 | 1.02 | inactive | Active | – | 66 to 87 | – | Active | – | –
5 | Cc1ncc(CO)c(/C=N/NC(=S)NC2CCN(Cc3ccccc3)CC2)c1O | Active | Active | Active | > 100 | 31 | 4.93 | inactive | Active | Active | 66 to 87 | inactive | – | – | –
6 | COc1cc2c(cc1OC)C(=O)C(CC1CCN(Cc3ccccc3)CC1)C2 (stereo unspecified) [DONEPEZIL] | – | – | – | > 100 | – | – | – | – | – | 74 | – | – | – | –
7 | Oc1ccccc1/C=N/NC(=S)NC1CCN(Cc2ccccc2)CC1 | inactive | Active | Active | 34.4 | 28 | 1.02 to 22.6 | Active | Active | Active | 66 to 87 | inactive | – | – | –
8 | CN(C)C(=S)NN=C(c1ccccn1)c1ccccn1 | Active | – | – | 0.013 | – | – | Active | – | – | – | – | – | – | –
9 | Oc1cccc2ccc(/C=N/NC(=S)NC3CCN(Cc4ccccc4)CC3)nc12 | Active | Active | Active | 36.1 | 17 | 1.02 to 22.6 | inactive | Active | – | 66 to 87 | – | Active | – | –
10 | S=C(N/N=C/c1ccc2ccccc2n1)NC1CCN(Cc2ccccc2)CC1 | inactive | Active | Active | 17.7 | – | 1.02 to 22.6 | inactive | Active | Active | 66 to 87 | – | – | – | –
11 | Oc1ccc(/C=N/NC(=S)NC2CCN(Cc3ccccc3)CC2)c(O)c1O | Active | – | – | 79.1 | 14 | 1.02 to 22.6 | inactive | Active | – | 66 to 87 | – | – | – | Active
